Patent US20250268826A1, “IONIZABLE LIPIDOID COMPOSITIONS AND THERAPEUTIC USES THEREOF” (Flagship Pioneering Innovations VII, LLC, priority 2023, published 2025)

Tests used:
Assay type in all cases: physicochemical
[1] = Encapsulation efficiency (EE %) by fluorescence based Ribogreen assay
[2] = LNP size and polydispersity index (PDI) by dynamic light scattering (DLS)
[3] = LNP Zeta potential measured using a Zetasizer (Malvern); conditions: for Zeta potential: hEPO mRNA, N:P 6; for Zeta potential (mV): LNP with hEPO mRNA, N:P ratio 6
[4] = Table 8, LNP 50:10:38.5:1.5 mol %, hEPO mRNA, N:P 6
[5] = Table 8, LNP Lipid:DSPC:Cholesterol:DMG-PEG2k 50:10:38.5:1.5 mol %, hEPO mRNA, N:P 6
[6] = Table 8, LNP 50:10:38.5:1.5 mol %
[7] = Table 11, LNP with hEPO mRNA, Lipid:DSPC:Cholesterol:DMG-PEG2k 50:10:38.5:1.5 mol % (ALC-0315: 46.3:9.4:42.7:1.6), N:P ratio 6, HEPES/sodium chloride/sucrose buffer, stored at −80C
[8] = Table 11, Lipid:DSPC:Cholesterol:DMG-PEG2k 50:10:38.5:1.5 mol % (ALC-0315: 46.3:9.4:42.7:1.6), HEPES/sodium chloride/sucrose buffer, stored at −80C
[9] = Table 10, LNP with hEPO mRNA, Lipid:DSPC:Cholesterol:DMG-PEG2k 50:10:38.5:1.5 mol %, N:P ratio 6, Ribogreen assay
[10] = Table 10, LNP with hEPO mRNA, Lipid:DSPC:Cholesterol:DMG-PEG2k 50:10:38.5:1.5 mol %, N:P ratio 6, DLS
[11] = Table 10, Lipid:DSPC:Cholesterol:DMG-PEG2k 50:10:38.5:1.5 mol %
[12] = Table 1, LNP lipid:DSPC:Cholesterol:DMG-PEG2k 50:10:38.5:1.5 mol %, hEPO mRNA, N:P 6
[13] = Table 1, LNP lipid:DSPC:Cholesterol:DMG-PEG2k 50:10:38.5:1.5 mol %
[14] = Table 3, LNP 50:10:38.5:1.5 mol %, hEPO mRNA, N:P 6
[15] = Table 5, LNP 50:10:38.5:1.5 mol %, hEPO mRNA, N:P 6

CCCCCCCCC(CCCCCC)C(=O)OCCN(CCOC(=O)C(CCCCCC)CCCCCCCC)C(=O)CCCN1CCCC1.Cl (stereo not drawn) [Compound 982]
Encapsulation Efficiency % [1, 4]: 99.9% | PDI [2, 4]: 0.081 | Size [2, 5]: 120.5 nm | Zeta potential [3, 6]: −14.2 mV

CCCCCCCCC(CCCCCC)C(=O)OCCN(CCOC(=O)C(CCCCCC)CCCCCCCC)C(=O)C(C)CCN1CCCC1.Cl (stereo not drawn) [Compound 987l]
Encapsulation Efficiency % [1, 7]: 95.9% | PDI [2, 7]: 0.051 | Size (nm) [2, 7]: 76.4 nm | Zeta potential (mV) [3, 8]: −2.9 mV

CCCCCCCC/C=C\CCCCCCCC(=O)OCCN(CCOC(=O)C(CCCCCC)CCCCCCCC)C(=O)CCN(CC)CC (stereo not drawn) [Compound 917a]
Encapsulation Efficiency % [1, 9]: 43.4% | PDI [2, 10]: 0.124 | Size (nm) [2, 10]: 82.8 nm | Zeta potential (mV) [3, 11]: −5.5 mV

CCCCCCCCC(CCCCCC)C(=O)OCCN(CCOC(=O)C(CCCCCC)CCCCCCCC)C(=O)CCNCC.Cl (stereo not drawn) [Compound 905]
Encapsulation Efficiency % [1, 4]: 100% | PDI [2, 4]: 0.204 | Size [2, 5]: 70.4 nm | Zeta potential [3, 6]: −2.9 mV

CCCCCCCC/C=C\CCCCCCCC(=O)OCCN(CCOC(=O)CCCCCCC/C=C\CCCCCCCC)C(=O)C(N)CO (stereo not drawn) [Compound 132]
Encapsulation Efficiency % [1, 12]: 92.9% | PDI [2, 12]: 0.15 | Size [2, 12]: 75.4 nm | Zeta potential [3, 13]: −4.36 mV

CCCCCCCCCC(=O)OCCN(CCOC(=O)CCCCCCCCC)C(=O)C(C)N (stereo not drawn) [Compound 110]
Encapsulation Efficiency % [1, 12]: 98% | PDI [2, 12]: 0.069 | Size [2, 12]: 57.7 nm | Zeta potential [3, 13]: −4.943 mV

CCCCCCCCCC(CCCCCCCCC)C(=O)OCCN(CCOC(=O)C(CCCCCCCCC)CCCCCCCCC)C(=O)CCN(C)CC [Compound 917e]
Encapsulation Efficiency % [1, 9]: 95.4% | PDI [2, 10]: 0.222 | Size (nm) [2, 10]: 52.5 nm | Zeta potential (mV) [3, 11]: −4.2 mV

CCCCCCCCC(CCCCCC)C(=O)OCCN(CCOC(=O)C(CCCCCC)CCCCCCCC)C(=O)CCNC.Cl (stereo not drawn) [Compound 904]
Encapsulation Efficiency % [1, 4]: 100% | PDI [2, 4]: 0.189 | Size [2, 5]: 86.7 nm | Zeta potential [3, 6]: −1.6 mV

CCCCCCCCCCCC(=O)OCCN(CCOC(=O)CCCCCCCCCCC)C(=O)C(C)N (stereo not drawn) [Compound 109]
Encapsulation Efficiency % [1, 12]: 97.6% | PDI [2, 12]: 0.557 | Size [2, 12]: 90.7 nm | Zeta potential [3, 13]: 8.911 mV

CCCCCCCC/C=C\CCCCCCCC(=O)OCCN(CCOC(=O)CCCCCCC/C=C\CCCCCCCC)C(=O)C(N)Cc1ccccc1 (stereo not drawn) [Compound 113]
Encapsulation Efficiency % [1, 12]: 95.2% | Encapsulation Efficiency % [1, 14]: 99.7% | PDI [2, 12]: 0.126 | Size [2, 12]: 79.1 nm | PDI [2, 14]: 0.068 | Size ([2]; Table 3, LNP lipid:DSPC:Cholesterol:DMG-PEG2k 50:10:38.5:1.5 mol %, hEPO mRNA, N:P 6): 61.4 nm | Zeta potential [3, 13]: −2.878 mV

CCCCCCCCC(CCCCCC)C(=O)OCCN(CCOC(=O)C(CCCCCC)CCCCCCCC)C(=O)C(C)CCN(CCC)CCC.Cl (stereo not drawn) [Compound 987k]
Encapsulation Efficiency % [1, 7]: 87.2% | PDI [2, 7]: 0.045 | Size (nm) [2, 7]: 76.7 nm | Zeta potential (mV) [3, 8]: −3.4 mV

CCCCCCCCCC(CCCCCCCCC)C(=O)OCCN(CCOC(=O)C(CCCCCCCCC)CCCCCCCCC)C(=O)C(C)N (stereo not drawn) [Compound 614]
Encapsulation Efficiency % [1, 15]: 99.7% | PDI [2, 15]: 0.443 | Size ([2]; Table 5, LNP Lipid:DSPC:Cholesterol:DMG-PEG2k 50:10:38.5:1.5 mol %, hEPO mRNA, N:P 6): 79.1 nm | Zeta potential ([3]; Table 5, LNP 50:10:38.5:1.5 mol %): −8.485 mV
